{"source": "patent US8927767B2", "about": "“Crystalline polymorphs of acetyl-glycine-beta-alanine and process of making the same” (Corum Inc., priority 2013, dated 2015)", "key": {"[1]": {"tested_on": "IL8", "test": "In vitro anti-inflammation study, IL8 level after UVB exposure", "format": "cell-based", "conditions": "human epidermal keratinocytes after exposure on UVB light"}, "[2]": {"conditions": "taught in U.S. patent application Ser. No. 13/128,446; cited from earlier work"}, "[3]": {"tested_on": "age spot", "test": "In vivo human study, spot-brightening", "conditions": "after 14 days"}, "[4]": {"tested_on": "melanin formation", "conditions": "taught in U.S. patent application Ser. No. 13/128,446; cited from earlier work"}, "[5]": {"tested_on": "tissue model of the human epidermis prepared from cultured human keratinocytes and melanocytes", "test": "Ex vivo whitening test in tissue model of the human epidermis", "format": "cell-based", "conditions": "2% of acetyl-glycine-beta-alanine, 9 day"}, "[6]": {"tested_on": "IL-6", "test": "In vitro anti-inflammation study, IL-6 level after UVB exposure", "format": "cell-based", "conditions": "human epidermal keratinocytes after exposure on UVB light"}, "[7]": {"test": "Thermal stability study by powder X-ray diffraction", "format": "physicochemical", "conditions": "140° C. oven with air circulation for 4 hours", "method": "(§1) The procedure of powder X-ray diffraction test used for obtaining FIG. 1, FIG. 2, FIG. 7 and FIG. 8 is described as follows:\n(§2) The crystalline polymorphs of acetyl-glycine-beta-alanine was analyzed by an X-ray powder Diffractometer, Bruker D8 Advanced, equipped with a Cu anode (λ=1.540600 Angstrom). X-ray source operated at 40 kV, 40 mA. The measuring 2-theta range was from about 5 to 60 degree and step width was 0.05 degree.\nThermal Stability Study for Both of Crystalline Polymorph A and Crystalline Polymorph B of Acetyl-Glycine-Beta-Alanine:\nThe crystalline polymorph A of acetyl-glycine-beta-alanine and crystalline polymorph B of acetyl-glycine-beta-alanine were stored at 140° C. oven with air circulation for 4 hours, and then analyzed with powder X-ray diffraction."}, "[8]": {"test": "Long term storage stability by powder X-ray diffraction", "format": "physicochemical", "conditions": "room temperature for 1 year without any humidity controlling", "method": "as §1, §2\nLong term storage stability can be found in both crystalline polymorph A and crystalline polymorph B of acetyl-glycine-beta-alanine. The powder X-ray diffraction pattern of the crystalline polymorph A and crystalline polymorph B are shown as FIG. 1 and FIG. 2, wherein the crystalline polymorph A and crystalline polymorph B were stored at room temperature for 1 year without any humidity controlling."}, "[9]": {"test": "Solubility study in different solvents (HPLC)", "format": "physicochemical", "conditions": "for Solubility: room temperature, 30 min", "method": "The Solubility Study of Crystalline Polymorph A and Polymorph B of Acetyl-Glycine-Beta-Alanine\nAccording to the theory of thermodynamic of polymorphism, the most thermodynamic stable crystalline polymorph has lowest solubility. The solubility of both of the crystalline polymorph A and polymorph B of acetyl-glycine-beta-alanine were measured in different solvents.\nThe solubility measurement procedure was described as the following. Prepared a saturated acetyl-glycine-beta-alanine solution with 1 gram of test solvents and then stir it for 30 min at room temperature. Collected the solution through a filter and used HPLC to analyze its solubility. The solubility was represented by mg of the polymorphs/grams of the solvent."}, "[10]": {"test": "Thermodynamic stable crystalline polymorph study: slurry equilibrium", "format": "physicochemical", "conditions": "5 g polymorph A + 5 g polymorph B in isopropanol/water 100 g/10 g; 40 to 45° C. 8 hours, then 25 to 30° C. 48 hours", "method": "Thermodynamic Stable Crystalline Polymorph Study: Slurry Equilibrium\nBoth of 5 grams of crystalline polymorph A and 5 grams of crystalline polymorph B of acetyl-glycine-beta-alanine were put into a flask. 100 grams of isopropanol and 10 grams of water were added into the flask to form a mixture. The mixture was stirred at 40 to 45° C. for 8 hours and then at 25 to 30° C. for 48 hours. The mixture was cooled to 15 to 20° C. and the crystalline was filtered out. The crystalline was dried and analyzed with powder X-ray diffraction and Fourier transform infrared spectrum."}, "[11]": {"conditions": "Ethanol/water: 95/5 (weight ratio)"}, "[12]": {"conditions": "Isopropanol/water: 3/1 (weight ratio)"}}, "data": [{"smiles": "CC(=O)NCC(=O)NCCC(=O)O", "note": "[acetyl-glycine-beta-alanine]", "values": [{"measurement": "IL8 level", "setting": "[1]", "value": "reduced"}, {"measurement": "color stability in the cosmetic formulation", "setting": "[2]", "value": "good color stability"}, {"measurement": "age spot reduction (spot-brightening)", "setting": "[3]", "value": 51.67, "unit": "%"}, {"measurement": "inhibiting melanin formation", "setting": "[4]", "value": "capable of inhibiting melanin formation"}, {"measurement": "existing melanin level (whitening efficacy)", "setting": "[5]", "value": "−30", "unit": "%"}, {"measurement": "IL-6 level", "setting": "[6]", "value": "reduced"}]}, {"smiles": "CC(=O)NCC(=O)NCCC(=O)O", "note": "[crystalline polymorph A, acetyl-glycine-beta-alanine]", "values": [{"measurement": "thermal stability (powder X-ray diffraction pattern)", "setting": "[7]", "value": "still not changed"}, {"measurement": "long term storage stability (powder X-ray diffraction pattern)", "setting": "[8]", "value": "not changed"}, {"measurement": "Solubility", "setting": "[9]; [11]", "value": 18.4, "unit": "mg/g"}, {"measurement": "Solubility", "setting": "[9]; [12]", "value": 62.3, "unit": "mg/g"}, {"measurement": "Solubility", "setting": "[9]; Methanol", "value": 26.5, "unit": "mg/g"}, {"measurement": "Solubility", "setting": "[9]; Water", "value": 177.0, "unit": "mg/g"}, {"measurement": "thermodynamic stability (from solubility results)", "setting": "[9]; concluded from lower solubility in various solvents", "value": "thermodynamically stable"}, {"measurement": "crystalline form obtained after slurry equilibrium", "setting": "[10]", "value": "the obtained crystalline was crystalline polymorph A"}]}, {"smiles": "CC(=O)NCC(=O)NCCC(=O)O", "note": "[crystalline polymorph B, acetyl-glycine-beta-alanine]", "values": [{"measurement": "thermal stability (powder X-ray diffraction pattern)", "setting": "[7]", "value": "changed"}, {"measurement": "long term storage stability (powder X-ray diffraction pattern)", "setting": "[8]", "value": "not changed"}, {"measurement": "Solubility", "setting": "[9]; [11]", "value": 23.9, "unit": "mg/g"}, {"measurement": "Solubility", "setting": "[9]; [12]", "value": 76.4, "unit": "mg/g"}, {"measurement": "Solubility", "setting": "[9]; Methanol", "value": 32.4, "unit": "mg/g"}, {"measurement": "Solubility", "setting": "[9]; Water", "value": 223.2, "unit": "mg/g"}]}]}
